In patent US20150337013A1, “NOVEL ANTIBACTERIAL AGENTS FOR THE TREATMENT OF GRAM POSITIVE INFECTIONS” (priority 2008, published 2015):
“And” between values parts separate entries of the source, which are not always exact repeats. Equal entries are not always repeated.

Assays:
[1] = test system: Enterococcus faecalis EFS.312, Daptomycin resistant mutant (EFA); format: cell-based; details: MHBc with 50 mg/L calcium, 18-20 hours at 37° C.
Summary of the method: (§1)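 CLSI M7-A7 broth microdilution, modified: MHB + 50 mg/L Ca, 5×10^5 bacteria/well, 2-fold dilutions, DMSO ≤1%, 18-20 h, 37° C, 200 rpm. Growth = visible turbidity or OD600 ≥0.1; MIC = lowest conc. without visible turbidity, μg/mL.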

[2] = test system: Enterococcus faecium EFM.384, Daptomycin resistant mutant (14-A); format: cell-based; details: MHBc with 50 mg/L calcium, 18-20 hours at 37° C.
Summary of the method: as §1

[3] = test system: Staphylococcus aureus SAU.278, Daptomycin resistant mutant (D10); format: cell-based; details: MHBc with 50 mg/L calcium, 18-20 hours at 37° C.
Summary of the method: as §1

[4] = test system: NAP1 Clostridium difficile strain
[5] = test system: C. difficile spores (ATCC #43596); assay: Hamster C. difficile infection (CDAD) protection model; format: in vivo, Syrian golden hamsters; details: oral 0.5 mg/kg once daily for 5 days (MET 70 mg/kg three times daily for 5 days)
Method: Syrian golden hamsters were pretreated with 10 mg/kg clindamycin subcutaneously 24 hours before bacterial challenge. An inoculum of 20 C. difficile spores (ATCC #43596) in sterile saline was administered orally. Treatment was initiated 4 hours post-inoculation with dH2O, metronidazole (MET), vancomycin (VAN), or a compound of the present invention. Oral dosing regimens for VAN and compounds of Formula I were 0.5 mg/kg once daily for 5 days. MET was administered at 70 mg/kg three times daily for 5 days. CDAD was confirmed as the cause of death by observations at necropsy, including wet tail and/or macroscopic cecal alterations. The % protection provided by each therapy tested was calculated at 1 and 21 days post-dosing.

gram positive bacteria = assay: Antimicrobial activity against a panel of organisms, summary statements; format: cell-based; details: statement in words
Method: (§2) Compounds according to Formula I were tested for antimicrobial activity against a panel of organisms. Aerobic organisms, Staphylococcus aureus, Enterococcus faecalis and E. faecium, were tested by broth microdilution according to Clinical and Laboratory Standards Institute (CLSI) document M7-A7 (Clinical and Laboratory Standards Institute. Methods for Dilution Antimicrobial Susceptibility Tests for Bacteria that Grow Aerobically; Approved Standard—Seventh Edition. CLSI document M7-A7 [ISBN 1-56238-587-9]. Clinical and Laboratory Standards Institute, 940 West Valley Road, Suite 1400, Wayne, Pa. 19087-1898 USA, 2006) with modifications as described below. Mueller Hinton Broth (MHBc) was supplemented with 50 mg/L calcium (equivalent to human physiological levels of calcium) and assay plates were incubated 18-20 hours at 37° C. with aeration (200 rpm).
(§3) In all cases the final concentration of dimethyl sulfoxide incubated with cells is less than or equal to 1%. For minimum inhibitory concentration (MIC) calculations, 2-fold dilutions of compounds were added to wells of a microtiter plate containing 5×10^5 bacteria in a final volume of 100 μL of media. Following incubation, (18-20 hours at 37° C. with aeration at 200 rpm) growth was confirmed visually by placing plates over a viewing apparatus (stand with a mirror underneath) and then the optical density (OD600) was measured using a SpectraMax 340PC^384 plate reader. Growth was defined as turbidity that could be detected with the naked eye or achieving minimum OD600of 0.1. MIC values (in μg/mL) were defined as the lowest concentration producing no visible turbidity.

[6] = test system: daptomycin resistant Staph. aureus (DRSA), daptomycin resistant E. faecium (DREfm) and daptomycin resistance E. faecalis (DREfs); assay: Activity against daptomycin resistant bacteria, summary statement; format: cell-based; details: statement in words
Method: as §2, §3

[7] = test system: Enterococcus faecalis EFS.201 (ATCC 49452); format: cell-based; details: ATCC 49452
Summary of the method: as §1

[8] = test system: Staphylococcus aureus SAU.399 (ATCC 43300), Methicillin and Oxacillin Resistant; format: cell-based; details: MHBc with 50 mg/L calcium, 18-20 hours at 37° C.
Summary of the method: as §1

[9] = test system: Staphylococcus aureus SAU.42 (ATCC 29213); format: cell-based; details: ATCC 29213
Summary of the method: as §1

| SMILES | Efs312 MIC [1] | Efm384 MIC [2] | Sa278 MIC [3] | C. diff MIC50 Nap-1 [4] | C. diff MIC90 Nap-1 [4] | Mean % Protection 1 Day Post Dosing [5] | Mean % Protection 21 Days Post Dosing [5] | as active or more active than daptomycin (gram positive bacteria) | more active against bacteria than daptomycin (gram positive bacteria) | useful against daptomycin resistant strains of bacteria [6] | C. diff MIC90 (Clostridium difficile) | Efs201 MIC [7] | Sa399 MIC [8] | Sa42 MIC [9] |
| --- | --- | --- | --- | --- | --- | --- | --- | --- | --- | --- | --- | --- | --- | --- |
| CCCCCc1ccc(/C(C)=C/C(=O)N[C@@H](Cc2c[nH]c3ccccc23)C(=O)N[C@H](CC(N)=O)C(=O)N[C@@H](CC(=O)O)C(=O)N[C@@H]2C(=O)NCC(=O)N[C@@H](CCCN)C(=O)N[C@@H](CC(=O)O)C(=O)N[C@H](C)C(=O)N[C@@H](CC(=O)O)C(=O)NCC(=O)N[C@H](CO)C(=O)N[C@@H]([C@H](C)CC(=O)O)C(=O)N[C@@H](CC(=O)c3ccccc3N)C(=O)O[C@@H]2C)cc1 [Compound 49, N-{1-[(E)-3-(4-pentylphenyl)but-2-enoyl]}-L-tryptophyl-D-asparaginyl-L-α-aspartyl-L-threonylglycyl-L-ornithyl-L-α-aspartyl-D-alanyl-L-α-aspartylglycyl-D-seryl-(3R)-3-methyl-L-α-glutamyl-(αS)-α,2-diamino-γ-oxobenzenebutanoic acid (13→4)-lactone] | 8 µg/mL and 4 µg/mL | 4 µg/mL | 1 µg/mL | 0.25 µg/mL | 0.50 µg/mL |  |  |  |  |  |  |  |  |  |
| CCCCCCCCc1ccc(C(=O)N[C@@H](Cc2c[nH]c3ccccc23)C(=O)N[C@H](CC(N)=O)C(=O)N[C@@H](CC(=O)O)C(=O)N[C@@H]2C(=O)NCC(=O)N[C@@H](CCCN)C(=O)N[C@@H](CC(=O)O)C(=O)N[C@H](C)C(=O)N[C@@H](CC(=O)O)C(=O)NCC(=O)N[C@H](CO)C(=O)N[C@@H]([C@H](C)CC(=O)O)C(=O)N[C@@H](CC(=O)c3ccccc3N)C(=O)O[C@@H]2C)cc1 [Compound 34, N-(4-octylbenzoyl)-L-tryptophyl-D-asparaginyl-L-α-aspartyl-L-threonylglycyl-L-ornithyl-L-α-aspartyl-D-alanyl-L-α-aspartylglycyl-D-seryl-(3R)-3-methyl-L-α-glutamyl-(αS)-α,2-diamino-γ-oxobenzenebutanoic acid (13→4)-lactone] | 4 µg/mL and 8 µg/mL | 2 µg/mL and 4 µg/mL |  |  |  | 85% | 38% | as active or more active than daptomycin | more effective than daptomycin | useful against daptomycin resistant strains of bacteria | 1 µg/mL |  |  |  |
| CCCCCCCc1ccc(C(=O)N[C@@H](Cc2c[nH]c3ccccc23)C(=O)N[C@H](CC(N)=O)C(=O)N[C@@H](CC(=O)O)C(=O)N[C@@H]2C(=O)NCC(=O)N[C@@H](CCCN)C(=O)N[C@@H](CC(=O)O)C(=O)N[C@H](C)C(=O)N[C@@H](CC(=O)O)C(=O)NCC(=O)N[C@H](CO)C(=O)N[C@@H]([C@H](C)CC(=O)O)C(=O)N[C@@H](CC(=O)c3ccccc3N)C(=O)O[C@@H]2C)cc1 [Compound 33, N-(4-heptylbenzoyl)-L-tryptophyl-D-asparaginyl-L-α-aspartyl-L-threonylglycyl-L-ornithyl-L-α-aspartyl-D-alanyl-L-α-aspartylglycyl-D-seryl-(3R)-3-methyl-L-α-glutamyl-(αS)-α,2-diamino-γ-oxobenzenebutanoic acid (13→4)-lactone] |  | 4 µg/mL and 2 µg/mL |  |  |  | 85% | 69% | as active or more active than daptomycin | more effective than daptomycin | useful against daptomycin resistant strains of bacteria |  | 0.5 µg/mL | 0.125 µg/mL | 0.25 µg/mL |
| CCCCCC12CCC(C(=O)N[C@@H](Cc3c[nH]c4ccccc34)C(=O)N[C@H](CC(N)=O)C(=O)N[C@@H](CC(=O)O)C(=O)N[C@@H]3C(=O)NCC(=O)N[C@@H](CCCN)C(=O)N[C@@H](CC(=O)O)C(=O)N[C@H](C)C(=O)N[C@@H](CC(=O)O)C(=O)NCC(=O)N[C@H](CO)C(=O)N[C@@H]([C@H](C)CC(=O)O)C(=O)N[C@@H](CC(=O)c4ccccc4N)C(=O)O[C@@H]3C)(CC1)CC2 [Compound 22, N-(4-pentylbicyclo[2.2.2]octane-1-carbonyl)-L-tryptophyl-D-asparaginyl-L-α-aspartyl-L-threonylglycyl-L-ornithyl-L-α-aspartyl-D-alanyl-L-α-aspartylglycyl-D-seryl-(3R)-3-methyl-L-α-glutamyl-(αS)-α,2-diamino-γ-oxobenzenebutanoic acid (13→4)-lactone] |  |  |  |  |  | 85% | 38% | as active or more active than daptomycin |  | useful against daptomycin resistant strains of bacteria | 1 µg/mL |  |  |  |
